In brackets after ≈: the same amount, converted by molar mass.
Legend:
[1] = tested on: MRSA ATCC 43300; test: Inhibition zone, MIC and MBC; type: cell-based, Staphylococcus aureus
[2] = tested on: K. pneumonia ATCC 13883; test: Inhibition zone, MIC and MBC; type: cell-based, Klebsiella pneumoniae
[3] = tested on: E. coli ATCC 25922; test: Inhibition zone, MIC and MBC; type: cell-based
[4] = tested on: C. albicans ATCC 10231; test: Inhibition zone, MIC and MBC; type: cell-based; settings: Candida albicans, ATCC10231
[5] = tested on: P. aeruginosa ATCC 10145; test: Inhibition zone, MIC and MBC; type: cell-based, Pseudomonas aeruginosa
[6] = tested on: MRSA ATCC 43300; test: Biofilm formation inhibition, crystal violet assay; type: cell-based, Staphylococcus aureus; settings: at the corresponding MIC
[7] = tested on: K. pneumonia ATCC 13883; test: Biofilm formation inhibition, crystal violet assay; type: cell-based, Klebsiella pneumoniae; settings: at the corresponding MIC
[8] = tested on: E. coli ATCC 25922; test: Biofilm formation inhibition, crystal violet assay; type: cell-based; settings: at the corresponding MIC
[9] = tested on: C. albicans ATCC 10231; test: Biofilm formation inhibition, crystal violet assay; type: cell-based, Candida albicans; settings: at the corresponding MIC
[10] = tested on: P. aeruginosa ATCC 10145; test: Biofilm formation inhibition, crystal violet assay; type: cell-based, Pseudomonas aeruginosa; settings: at the corresponding MIC
[11] = tested on: MRSA NRS384 (MRSA USA300); test: MIC, broth microdilution; type: cell-based, methicillin-resistant Staphylococcus aureus; settings: Staphylococcus aureus
[12] = tested on: Clostridium difficile ATCC BAA 1870; test: MIC, broth microdilution; type: cell-based; settings: Clostridioides difficile, BAA1870, Clostridium difficile ATCC BAA 1870
[13] = tested on: E. coli JW55031 (TolC mutant); test: MIC, broth microdilution; type: cell-based; settings: Escherichia coli
[14] = tested on: Enterococcus faecalis ATCC 51299; test: MIC, broth microdilution; type: cell-based; settings: ATCC51299
[15] = tested on: Neisseria gonorrhoeae 181; test: MIC, broth microdilution; type: cell-based; settings: Neisseria gonorrhoeae, 181, Neisseria gonorrhoeae 181
[16] = tested on: C. albicans SS5314 (wild type); test: MIC, broth microdilution; type: cell-based; settings: Candida albicans
[17] = tested on: Escherichia coli BW25113 (wild type); test: MIC, broth microdilution; type: cell-based
[18] = tested on: methicillin-resistant Staphylococcus aureus; test: Time-kill assay; type: cell-based; settings: 4 × MIC, 24 hours incubation at 37 °C
[19] = tested on: human erythrocytes; test: Hemolytic activity; type: cell-based; settings: up to 64 μg mL^−1, 37 °C for 1 h
[20] = Staphylococcus aureus, ATCC43300|MRSA
[21] = Klebsiella pneumoniae, ATCC13883
[22] = Pseudomonas aeruginosa, ATCC10145

Structure (SMILES)	MIC [11]	MIC [12]	MIC [13]	MIC [14]	MIC [15]	MIC [16]	MIC [17]	other results
CO/N=C(\C(=O)N[C@@H]1C(=O)N2C(C(=O)O)=C(CSc3nc(=O)c(=O)[nH]n3C)CS[C@H]12)c1csc(N)n1 [Ceftriaxone]								IZD ([1]; MRSA ATCC 43300, mean ± SD): 30.34 ± 1.24 millimeters; MBC [1, 20]: 8 µg/mL (≈ 14.4 µM); MIC [1, 20]: 8 µg/mL (≈ 14.4 µM); IZD ([2]; K. pneumonia ATCC 13883, mean ± SD): 34.34 ± 0.47 millimeters; MBC [2, 21]: 8 µg/mL (≈ 14.4 µM); MIC [2, 21]: 4 µg/mL (≈ 7.21 µM); IZD ([3]; E. coli ATCC 25922, mean ± SD): 36 ± 1.50 millimeters; MBC ([3]; Escherichia coli, ATCC25922): 32 µg/mL (≈ 57.7 µM); MIC ([3]; Escherichia coli, ATCC25922): 16 µg/mL (≈ 28.9 µM); MBC [4]: 31.2 µg/mL (≈ 56.3 µM); MIC [4]: 7.8 µg/mL (≈ 14.1 µM); IZD ([5]; P. aeruginosa ATCC 10145, mean ± SD): 35 ±1.85 millimeters; MBC [5, 22]: 16 µg/mL (≈ 28.9 µM); MIC [5, 22]: 8 µg/mL (≈ 14.4 µM); Inhibition of biofilm formation (%) [6]: 73.262 ± 0.21%; Inhibition of biofilm formation (%) [7]: 61.23 ± 0.22%; Inhibition of biofilm formation (%) [8]: 59.14 ± 0.16%; Inhibition of biofilm formation (%) [9]: 82.50 ± 0.14%; Inhibition of biofilm formation (%) [10]: 74.39 ± 0.68%
CCCC#Cc1ccc(-n2nnc(C(C)=NNC(=N)N)c2C)cc1 [Compound 19, 2-(1-(5-Methyl-1-(4-(pent-1-yn-1-yl)phenyl)-1H-1,2,3-triazol-4-yl)ethylidene)hydrazine-1-carboximidamide]	32 µg/mL (≈ 98.9 µM)	32 µg/mL (≈ 98.9 µM)	32 µg/mL (≈ 98.9 µM)	8 µg/mL (≈ 24.7 µM)	64 µg/mL (≈ 198 µM)	16 µg/mL (≈ 49.5 µM)	> 64 µg/mL	
CC(=NNC(=N)N)c1nnn(-c2ccc(C#CCC(C)C)cc2)c1C [Compound 20, 2-(1-(5-Methyl-1-(4-(4-methylpent-1-yn-1-yl)phenyl)-1H-1,2,3-triazol-4-yl)ethylidene)hydrazine-1-carboximidamide]	≤ 4 µg/mL	8 µg/mL (≈ 23.7 µM)	8 µg/mL (≈ 23.7 µM)	8 µg/mL (≈ 23.7 µM)	32 µg/mL (≈ 94.8 µM)	8 µg/mL (≈ 23.7 µM)	> 64 µg/mL	
CCCCC#Cc1ccc(-n2nnc(C(C)=NNC(=N)N)c2C)cc1 [Compound 21, 2-(1-(1-(4-(Hex-1-yn-1-yl)phenyl)-5-methyl-1H-1,2,3-triazol-4-yl)ethylidene)hydrazine-1-carboximidamide]	32 µg/mL (≈ 94.8 µM)	16 µg/mL (≈ 47.4 µM)	32 µg/mL (≈ 94.8 µM)	32 µg/mL (≈ 94.8 µM)	> 64 µg/mL	16 µg/mL (≈ 47.4 µM)	> 64 µg/mL	
CCCCCCC#Cc1ccc(-n2nnc(C(C)=NNC(=N)N)c2C)cc1 [Compound 22, 2-(1-(1-(4-(Oct-1-yn-1-yl)phenyl)-5-methyl-1H-1,2,3-triazol-4-yl)ethylidene)hydrazine-1-carboximidamide]	64 µg/mL (≈ 175 µM)	64 µg/mL (≈ 175 µM)	64 µg/mL (≈ 175 µM)	64 µg/mL (≈ 175 µM)	> 64 µg/mL	64 µg/mL (≈ 175 µM)	> 64 µg/mL	
CC(=NNC(=N)N)c1nnn(-c2ccc(C#CC3CC3)cc2)c1C [Compound 24, 2-(1-(1-(4-(Cyclopropylethynyl)phenyl)-5-methyl-1H-1,2,3-triazol-4-yl)ethylidene)hydrazine-1-carboximidamide]	64 µg/mL (≈ 199 µM)	64 µg/mL (≈ 199 µM)	64 µg/mL (≈ 199 µM)	> 64 µg/mL	> 64 µg/mL	> 64 µg/mL	> 64 µg/mL	
CC(=NNC(=N)N)c1nnn(-c2ccc(C#CC3CCCC3)cc2)c1C [Compound 25, 2-(1-(1-(4-(Cyclopentylethynyl)phenyl)-5-methyl-1H-1,2,3-triazol-4-yl)ethylidene)hydrazine-1-carboximidamide]	64 µg/mL (≈ 183 µM)	> 64 µg/mL	64 µg/mL (≈ 183 µM)	> 64 µg/mL	64 µg/mL (≈ 183 µM)	> 64 µg/mL	> 64 µg/mL	
CC(=NNC(=N)N)c1nnn(-c2ccc(C#CC3CCCCC3)cc2)c1C [Compound 26, 2-(1-(1-(4-(Cyclohexylethynyl)phenyl)-5-methyl-1H-1,2,3-triazol-4-yl)ethylidene)hydrazine-1-carboximidamide]	16 µg/mL (≈ 44 µM)	16 µg/mL (≈ 44 µM)	64 µg/mL (≈ 176 µM)	8 µg/mL (≈ 22 µM)	> 64 µg/mL	16 µg/mL (≈ 44 µM)	> 64 µg/mL	
CC(=NNC(=N)N)c1nnn(-c2ccc(C#Cc3ccccc3)cc2)c1C [Compound 30, 2-(1-(5-Methyl-1-(4-(phenylethynyl)phenyl)-1H-1,2,3-triazol-4-yl)ethylidene)hydrazine-1-carboximidamide]	≤ 4 µg/mL	> 64 µg/mL	16 µg/mL (≈ 44.8 µM)	16 µg/mL (≈ 44.8 µM)	> 64 µg/mL	8 µg/mL (≈ 22.4 µM)	> 64 µg/mL	time to complete bacterial eradication [18]: ≤ 24 h
CC(=NNC(=N)N)c1nnn(-c2ccc(C#Cc3ccc(C)cc3)cc2)c1C [Compound 31, 2-(1-(5-Methyl-1-(4-(p-tolylethynyl)phenyl)-1H-1,2,3-triazol-4-yl)ethylidene)hydrazine-1-carboximidamide]	8 µg/mL (≈ 21.5 µM)	2 µg/mL (≈ 5.38 µM)	4 µg/mL (≈ 10.8 µM)	8 µg/mL (≈ 21.5 µM)	> 64 µg/mL	2 µg/mL (≈ 5.38 µM)	> 64 µg/mL	
OC(Cn1cncn1)(Cn1cncn1)c1ccc(F)cc1F [Fluconazole, reference compound]						0.5 µg/mL (≈ 1.63 µM)		
CNC(C)C1CCC(N)C(OC2C(N)CC(N)C(OC3OCC(C)(O)C(NC)C3O)C2O)O1 (stereo not shown) [Gentamicin, reference compound]			0.25 µg/mL (≈ 0.523 µM)					
CC(=O)NC[C@H]1CN(c2ccc(N3CCOCC3)c(F)c2)C(=O)O1 [Linezolid, reference compound]	1 µg/mL (≈ 2.96 µM)	1 µg/mL (≈ 2.96 µM)	8 µg/mL (≈ 23.7 µM)	1 µg/mL (≈ 2.96 µM)	64 µg/mL (≈ 190 µM)	> 64 µg/mL		
CN(C)[C@@H]1C(O)=C(C(N)=O)C(=O)[C@@]2(O)C(O)=C3C(=O)c4c(O)cccc4[C@@](C)(O)[C@H]3C[C@@H]12 [Tetracycline, reference compound]					2 µg/mL (≈ 4.5 µM)			
CN[C@H](CC(C)C)C(=O)N[C@H]1C(=O)N[C@@H](CC(N)=O)C(=O)N[C@H]2C(=O)N[C@H]3C(=O)N[C@H](C(=O)N[C@H](C(=O)O)c4cc(O)cc(O)c4-c4cc3ccc4O)[C@H](O)c3ccc(c(Cl)c3)Oc3cc2cc(c3O[C@@H]2O[C@H](CO)[C@@H](O)[C@H](O)[C@H]2O[C@H]2C[C@](C)(N)[C@H](O)[C@H](C)O2)Oc2ccc(cc2Cl)[C@H]1O [Vancomycin, reference compound]	1 µg/mL (≈ 0.69 µM)	1 µg/mL (≈ 0.69 µM)	16 µg/mL (≈ 11 µM)	64 µg/mL (≈ 44.2 µM)	> 64 µg/mL	> 64 µg/mL		time to complete bacterial eradication [18]: about 24 hours
O=C(O)c1cn(C2CC2)c2cc(N3CCNCC3)c(F)cc2c1=O [ciprofloxacin]								hemolytic activity [19]: 15%

— publication PMC11659749 (RSC Advances, 2024)
